Data from PubChem BioAssay (NCI).
Where “and” joins values, the source holds several entries; their conditions need not be identical. Equal values may be shown once.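 Following 48 hours of exposure in 96-well plates, responses at five concentrations were used to interpolate endpoints linearly. Abbreviation: GI50, concentration required for 50% inhibition of growth. At the TGI there is no net growth.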

Key:
Experiment in all cases: NCI tumour cell line growth inhibition, 48 h
[1] = test system: HOP-92 NSCLC
[2] = test system: SF-539 CNS
[3] = test system: MOLT-4 leukemia
[4] = test system: DU-145 prostate
[5] = test system: UO-31 renal
[6] = test system: COLO 205 colon
[7] = test system: RXF 393 renal
[8] = test system: SK-OV-3 ovarian
[9] = test system: HS 578T breast
[10] = test system: MALME-3M melanoma

Compound	GI50 [1]	TGI [1]	GI50 [2]	TGI [2]	GI50 [3]	TGI [3]	GI50 [4]	TGI [4]	GI50 [5]	TGI [5]	GI50 [6]	TGI [6] [µM]	GI50 [7]	TGI [7]	GI50 [8]	TGI [8]	GI50 [9]	TGI [9]	GI50 [10]	TGI [10]
C/C(=N\NC(=S)N1CCCC1)c1ccccn1	50.8 nM	7.98 µM	< 0.0265 µM	3.08 µM	< 11.5 nM	11.6 µM	0.0428 µM	14.8 µM	< 0.011 µM	3.18 µM	< 10 nM	10.8	0.188 µM	7.14 µM	0.0232 µM	11.2 µM	198 nM	20.5 µM	< 34.9 nM	1.64 µM
Cn1cc(-c2csc(-c3ccc(Cl)cc3)n2)c2cccnc21	2540 nM	19.1 µM	14.8 µM	29.5 µM	12400 nM	38.6 µM	15.3 µM	28.9 µM	13.6 µM	38.6 µM	13700 nM	26.6	13.9 µM	39.8 µM	15.9 µM	39.2 µM	12000 nM	34.4 µM	14800 nM	42.2 µM
CCS(=O)(=O)c1cccc(-c2cc(C(=O)NC3CCN(C)CC3)c(C)c3[nH]c4ncc(C)cc4c23)c1	120 nM and 88.7 nM	0.595 µM and 0.33 µM	0.329 µM and 0.239 µM	1.92 µM and 1.39 µM	316 nM and 237 nM	> 6.38 µM and 3.14 µM	1.21 µM and 0.745 µM	3.48 µM and 2.35 µM	> 5.3 µM and 6.65 µM	> 10 µM and 26.4 µM	92.3 nM and 31.8 nM		0.957 µM and 0.512 µM	3.11 µM and 1.56 µM	0.624 µM and 0.771 µM	4.31 µM and 7.31 µM	275 nM and 109 nM	2.6 µM and 0.424 µM	843 nM and 571 nM	4.13 µM and 3.22 µM
COc1ccc(N=c2nc3sc4cc(Cl)ccc4n3c(N)c2C#N)cc1	26500 nM	> 88.6 µM	9.71 µM	> 100 µM	7740 nM	> 76.5 µM	35.8 µM	> 100 µM	18.3 µM	> 100 µM	2390 nM	6.47	5.27 µM	> 100 µM	5.9 µM	> 100 µM	1270 nM		2250 nM	7.42 µM
O=S1(=O)CCC2=CC(C(F)(F)F)=CC(C(F)(F)F)=CN21		4.26 µM		3.8 µM		1.8 µM		5.46 µM		2.05 µM		1.34		6.01 µM		12.2 µM		> 43.4 µM		2.26 µM
Cc1nc(C(=O)OCc2ccccc2)cc(OCc2ccccc2)c1C	14700 nM	30.8 µM	18.1 µM	35.2 µM	517 nM	7.53 µM	17 µM	41.4 µM	18.3 µM	39 µM	22600 nM	65.1	13.5 µM	28 µM	> 89 µM	> 100 µM	18600 nM	47.9 µM	24400 nM	52.1 µM
CC(=O)c1nc(-c2ccc(C[C@@H](CNC(=O)CN(C)C)NC(=O)c3ccc(OC(C)C)c(Cl)c3)cc2)cn1C	1520 nM	13.8 µM	0.0341 µM	3.03 µM	40.6 nM	15 µM	0.032 µM	11.4 µM	0.723 µM	17.6 µM	29.2 nM	3.84	0.0628 µM	16.6 µM	0.0346 µM	16.1 µM	61.5 nM	21.3 µM	277 nM	18.2 µM
O=C(NC1=C(Cl)C(=O)c2ccccc2C1=O)C(=O)c1c(O)c2ccccc2oc1=O		32.3 µM		11.1 µM		18 µM		2.93 µM		21.1 µM		17.9		21.9 µM		27.4 µM		> 65 µM		2.7 µM
COc1ccc(C(=O)Cn2c(C(=O)c3ccc(Cl)cc3)nc(-c3ccccc3)c2-c2ccccc2)cc1	7430 nM	83.1 µM	52.3 µM	> 100 µM	> 100000 nM	> 100 µM	> 100 µM	> 100 µM	> 100 µM	> 100 µM	> 100000 nM	> 100	23.6 µM	> 100 µM	60.1 µM	> 100 µM	44100 nM	> 100 µM	> 100000 nM	> 100 µM
CN(Cc1cnc2nc(N)nc(N)c2n1)c1c(Cl)cc(C(=O)NC(CCC(=O)O)C(=O)O)cc1Cl (stereo not drawn)	1490 nM	> 100 µM	< 0.01 µM	> 100 µM	< 20.1 nM	> 100 µM	< 0.01 µM	> 100 µM	< 0.01 µM	> 100 µM	80 nM	> 100	0.731 µM	> 100 µM	0.807 µM	> 100 µM	8120 nM	> 100 µM	81400 nM	> 100 µM
COC1CCC(OC)C(c2nc3sccn3c2/C=N/N=C(N)N)C1 (stereo not drawn)	2760 nM	30.5 µM	20.4 µM	44 µM	> 74600 nM	> 100 µM	45.1 µM	> 80.2 µM	> 67.5 µM	> 100 µM	25300 nM	> 63.7	24.8 µM	> 82.9 µM	47.1 µM	> 100 µM	24600 nM	68.6 µM	1700 nM	23.8 µM
COc1cc(C=NCC(=O)CSC(c2ccccc2)c2ccccc2)ccc1O	10000 nM	21.7 µM	14.8 µM	29.1 µM	9050 nM	31.8 µM	12.2 µM	37.8 µM	12.7 µM	29.1 µM	10600 nM	22.4	13.4 µM	26.8 µM	3.58 µM	17.2 µM	46.4 nM	5.52 µM	6110 nM	22.4 µM
